PubChem BioAssay AID248 (DTP/NCI, 2004)
Values joined by “and” are separate entries in the source; they are usually repeats but may differ in a detail not shown here. Equal values may be shown once. Toxic doses and inconclusive results are not listed.

Test system: L1210 leukemia ip in BDF1 mice, survival T/C
Assay: NCI In Vivo Anticancer Drug Screen. Data for tumor model L1210 Leukemia (intraperitoneal) in B6D2F1 (BDF1) mice
Details: endpoint: mean survival time, higher = longer survival
How it was run: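 Read-out is survival time, reported as the treated-group measurement over the vehicle-control measurement.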

[1] = dose: 100.0 mg/kg/injection, schedule: Q04DX002 (ip), vehicle: Klucel (hydroxypropylcellulose) (HPC)
[2] = dose: 200.0 mg/kg/injection, schedule: Q04DX002 (ip), vehicle: Klucel (hydroxypropylcellulose) (HPC)
[3] = dose: 400.0 mg/kg/injection, schedule: Q04DX002 (ip), vehicle: Klucel (hydroxypropylcellulose) (HPC)
[4] = dose: 100.0 mg/kg/injection, schedule: Q04DX003 (ip), vehicle: saline with Tween-80
[5] = dose: 200.0 mg/kg/injection, schedule: Q04DX003 (ip), vehicle: saline with Tween-80
[6] = dose: 400.0 mg/kg/injection, schedule: Q04DX003 (ip), vehicle: saline with Tween-80
[7] = dose: 100.0 mg/kg/injection, schedule: Q01DX009 (ip), vehicle: Klucel (hydroxypropylcellulose) (HPC)
[8] = dose: 100.0 mg/kg/injection, schedule: Q04DX003 (ip), vehicle: Klucel (hydroxypropylcellulose) (HPC)
[9] = dose: 200.0 mg/kg/injection, schedule: Q01DX009 (ip), vehicle: Klucel (hydroxypropylcellulose) (HPC)
[10] = dose: 200.0 mg/kg/injection, schedule: Q04DX003 (ip), vehicle: Klucel (hydroxypropylcellulose) (HPC)
[11] = dose: 400.0 mg/kg/injection, schedule: Q01DX009 (ip), vehicle: Klucel (hydroxypropylcellulose) (HPC)
[12] = dose: 400.0 mg/kg/injection, schedule: Q04DX003 (ip), vehicle: Klucel (hydroxypropylcellulose) (HPC)
[13] = dose: 50.0 mg/kg/injection, schedule: Q01DX001 (ip), vehicle: saline
[14] = dose: 100.0 mg/kg/injection, schedule: Q01DX001 (ip), vehicle: saline
[15] = dose: 200.0 mg/kg/injection, schedule: Q01DX001 (ip), vehicle: saline
[16] = dose: 400.0 mg/kg/injection, schedule: Q01DX001 (ip), vehicle: saline

Structure (SMILES): N[C@H](Cc1c[nH]c2ccccc12)C(=O)O
- T/C (dose: 100.0 mg/kg/injection, schedule: Q01DX009 (ip), vehicle: acetone): 95 % of control
- T/C (dose: 200.0 mg/kg/injection, schedule: Q01DX009 (ip), vehicle: acetone): 104 % of control
- T/C (dose: 400.0 mg/kg/injection, schedule: Q01DX009 (ip), vehicle: acetone): 102 % of control
- T/C (dose: 800.0 mg/kg/injection, schedule: Q01DX009 (ip), vehicle: acetone): 95 % of control

Structure (SMILES): COc1cc2nc3cc(Nc4ccccc4)c(=O)c(C(C)=O)c-3n(CCN3CCOCC3)c2cc1OC
- T/C [1]: 90 % of control
- T/C [2]: 87 % of control
- T/C [3]: 107 % of control

Structure (SMILES): CC(C)(O)C(O)CC1=C(O)c2ccccc2C(=O)C1=O (stereo unspecified)
- T/C (dose: 100.0 mg/kg/injection, schedule: Q01DX001 (ip), vehicle: water): 106 % of control
- T/C (dose: 200.0 mg/kg/injection, schedule: Q01DX001 (ip), vehicle: water): 97 % of control
- T/C (dose: 400.0 mg/kg/injection, schedule: Q01DX001 (ip), vehicle: water): 93 % of control

Structure (SMILES): CCC(C)(C)c1ccc(O)c(C(=O)O)c1
- T/C (dose: 100.0 mg/kg/injection, schedule: Q01DX001 (ip), vehicle: carboxymethylcellulose (CMC)): 90 % of control
- T/C (dose: 200.0 mg/kg/injection, schedule: Q01DX001 (ip), vehicle: carboxymethylcellulose (CMC)): 95 % of control

Structure (SMILES): CCC(C)SC1=NC(N)=NC2=NC=NC21 (stereo unspecified)
- T/C (dose: 50.0 mg/kg/injection, schedule: Q04DX003 (ip), vehicle: carboxymethylcellulose (CMC)): 118 % of control
- T/C (dose: 100.0 mg/kg/injection, schedule: Q04DX003 (ip), vehicle: carboxymethylcellulose (CMC)): 122 % of control

Structure (SMILES): O=[N+]([O-])c1ccc(OCc2ccc(COc3ccc(S(=O)(=O)F)cc3)cc2)c(Cl)c1
- T/C (dose: 100.0 mg/kg/injection, schedule: Q01DX001 (ip), vehicle: saline with Tween-80): 90 % of control
- T/C (dose: 200.0 mg/kg/injection, schedule: Q01DX001 (ip), vehicle: saline with Tween-80): 102 % of control
- T/C (dose: 400.0 mg/kg/injection, schedule: Q01DX001 (ip), vehicle: saline with Tween-80): 96 % of control

Structure (SMILES): COc1c2c(c(OC)c3c1C(=O)c1ccccc1C3=O)CC(C(C)=O)CC2 (stereo unspecified)
- T/C [4]: 94 % of control
- T/C [5]: 92 % of control
- T/C [6]: 92 % of control

Structure (SMILES): O=NN(CCCl)C(=O)N[C@H]1CCCC[C@H]1Cl
- T/C (dose: 12.0 mg/kg/injection, schedule: Q01DX001 (ip), vehicle: carboxymethylcellulose (CMC)): 108 % of control
- T/C (dose: 16.0 mg/kg/injection, schedule: Q01DX001 (ip), vehicle: carboxymethylcellulose (CMC)): 175 % of control
- T/C (dose: 31.0 mg/kg/injection, schedule: Q01DX001 (ip), vehicle: carboxymethylcellulose (CMC)): 180 % of control
- T/C (dose: 36.0 mg/kg/injection, schedule: Q01DX001 (ip), vehicle: carboxymethylcellulose (CMC)): 177 % of control
- T/C (dose: 40.0 mg/kg/injection, schedule: Q01DX001 (ip), vehicle: carboxymethylcellulose (CMC)): 168 % of control
- T/C (dose: 54.0 mg/kg/injection, schedule: Q01DX001 (ip), vehicle: carboxymethylcellulose (CMC)): 289 % of control
- T/C (dose: 62.0 mg/kg/injection, schedule: Q01DX001 (ip), vehicle: carboxymethylcellulose (CMC)): 218 % of control and 304 % of control
- T/C (dose: 72.0 mg/kg/injection, schedule: Q01DX001 (ip), vehicle: carboxymethylcellulose (CMC)): 289 % of control
- T/C (dose: 90.0 mg/kg/injection, schedule: Q01DX001 (ip), vehicle: carboxymethylcellulose (CMC)): 295 % of control
- T/C (dose: 93.0 mg/kg/injection, schedule: Q01DX001 (ip), vehicle: carboxymethylcellulose (CMC)): 177 % of control
- T/C (dose: 108.0 mg/kg/injection, schedule: Q01DX001 (ip), vehicle: carboxymethylcellulose (CMC)): 307 % of control
- T/C (dose: 125.0 mg/kg/injection, schedule: Q01DX001 (ip), vehicle: carboxymethylcellulose (CMC)): 175 % of control
- T/C (dose: 135.0 mg/kg/injection, schedule: Q01DX001 (ip), vehicle: carboxymethylcellulose (CMC)): 306 % of control
- T/C (dose: 187.0 mg/kg/injection, schedule: Q01DX001 (ip), vehicle: carboxymethylcellulose (CMC)): 107 % of control
- T/C (dose: 207.0 mg/kg/injection, schedule: Q01DX001 (ip), vehicle: carboxymethylcellulose (CMC)): 242 % of control

Structure (SMILES): O=C(O)c1ccc(NCc2cccc([N+](=O)[O-])c2)cc1
- T/C (dose: 100.0 mg/kg/injection, schedule: Q01DX001 (ip), vehicle: Klucel (hydroxypropylcellulose) (HPC)): 100 % of control
- T/C [7]: 96 % of control
- T/C [1]: 100 % of control and 105 % of control
- T/C [8]: 99 % of control
- T/C (dose: 200.0 mg/kg/injection, schedule: Q01DX001 (ip), vehicle: Klucel (hydroxypropylcellulose) (HPC)): 104 % of control
- T/C [9]: 106 % of control and 86 % of control
- T/C [2]: 101 % of control and 102 % of control
- T/C [10]: 108 % of control
- T/C (dose: 400.0 mg/kg/injection, schedule: Q01DX001 (ip), vehicle: Klucel (hydroxypropylcellulose) (HPC)): 100 % of control
- T/C [11]: 96 % of control and 98 % of control
- T/C [3]: 99 % of control and 103 % of control
- T/C [12]: 98 % of control

Structure (SMILES): NC1=NCC(CSS(=O)(=O)O)S1 (stereo unspecified)
- T/C (dose: 5.0 mg/kg/injection, schedule: Q01DX009 (ip), vehicle: saline): 95 % of control
- T/C (dose: 10.0 mg/kg/injection, schedule: Q01DX001 (ip), vehicle: saline): 101 % of control
- T/C (dose: 10.0 mg/kg/injection, schedule: Q01DX009 (ip), vehicle: saline): 89 % of control
- T/C (dose: 10.0 mg/kg/injection, schedule: Q04DX003 (ip), vehicle: saline): 96 % of control
- T/C (dose: 20.0 mg/kg/injection, schedule: Q01DX001 (ip), vehicle: saline): 93 % of control
- T/C (dose: 20.0 mg/kg/injection, schedule: Q01DX009 (ip), vehicle: saline): 106 % of control
- T/C (dose: 20.0 mg/kg/injection, schedule: Q04DX003 (ip), vehicle: saline): 105 % of control
- T/C (dose: 29.0 mg/kg/injection, schedule: Q01DX009 (ip), vehicle: saline): 90 % of control
- T/C (dose: 40.0 mg/kg/injection, schedule: Q01DX001 (ip), vehicle: saline): 95 % of control
- T/C (dose: 40.0 mg/kg/injection, schedule: Q04DX003 (ip), vehicle: saline): 97 % of control

Structure (SMILES): COC1OC(O)C(NC(=O)C(F)(F)F)CC1O (stereo unspecified)
- T/C [13]: 103 % of control
- T/C [14]: 97 % of control
- T/C [15]: 103 % of control
- T/C [16]: 91 % of control

Structure (SMILES): CC(C)(C(=O)O)c1ccccc1C(=O)c1ccccc1
- T/C [8]: 97 % of control
- T/C [10]: 101 % of control
- T/C [12]: 105 % of control

Structure (SMILES): CCOc1ccc(NC(=O)c2ccccc2Cl)cc1
- T/C [7]: 98 % of control
- T/C [9]: 95 % of control
- T/C [11]: 103 % of control

Structure (SMILES): COc1cccc(/C=N\NC(=O)CCCC(=O)N/N=C/c2cccc(OC)c2)c1
- T/C [13]: 87 % of control
- T/C [14]: 90 % of control
- T/C [16]: 103 % of control

Structure (SMILES): O=C(Nc1ccc(C2=NCCN2)cc1)c1cc(Cl)c(C(=O)Nc2ccc(C3=NCCN3)cc2)cc1Cl
- T/C (dose: 13.4 mg/kg/injection, schedule: Q01DX Z (ip), vehicle: carboxymethylcellulose (CMC)): 104 % of control
- T/C (dose: 20.0 mg/kg/injection, schedule: Q01DX Z (ip), vehicle: carboxymethylcellulose (CMC)): 123 % of control
- T/C (dose: 45.0 mg/kg/injection, schedule: Q01DX Z (ip), vehicle: carboxymethylcellulose (CMC)): 88 % of control

Structure (SMILES): O=C1NC(c2ccccc2)C(c2ccccc2)N1 (stereo unspecified)
- T/C [14]: 97 % of control
- T/C [15]: 100 % of control
- T/C [16]: 97 % of control

Structure (SMILES): [Cl][Fe]([Cl])[Cl]
- T/C (dose: 12.5 mg/kg/injection, schedule: Q01DX009 (ip), vehicle: saline with Tween-80): 98 % of control
- T/C (dose: 25.0 mg/kg/injection, schedule: Q01DX009 (ip), vehicle: saline with Tween-80): 94 % of control
- T/C (dose: 75.0 mg/kg/injection, schedule: Q01DX001 (ip), vehicle: saline): 96 % of control
- T/C [4]: 93 % of control
- T/C (dose: 150.0 mg/kg/injection, schedule: Q01DX001 (ip), vehicle: saline): 93 % of control
- T/C [5]: 94 % of control
- T/C (dose: 300.0 mg/kg/injection, schedule: Q01DX001 (ip), vehicle: saline): 98 % of control
- T/C [6]: 105 % of control
